The results in this text go back to patent publication US4910296A, “Medicaments containing alpha 1 thymosin fragments and having an immunostimulant action, and fragments of alpha 1 thymosin” (priority 1980, dated 1990).

Where two headings read alike, the source gives them in different places. Residues, ends and D or L forms follow the SMILES beside them. No end group written: not given here.

For experiment [1], the system named is peripheral human lymphocytes. The format is cell-based. The conditions noted are these: for Relative number of E-rosettes (%): after inhibition with α-amanitin; for E-rosette number (%): cells blocked with α-amanitin = 0%, normal level without any addition = 100%, at optimum concentration; for Optimum concentr.: concentration giving the stated E-rosette number. An excerpt: (§1) The immunological test methods used were the E-rosette test according to Wara, Ammann et al. (N.Y. Acad. Sci. 249 (1975) 308 and N. Engl. J. Med. 292 (1975) 70) and the method of mixed lymphocyte culture, both methods involving additional inhibition of cellular RNS polymerase by alpha-amanitin. The E-rosette test is based on the fact that the percentage of E-rosette forming cells in peripheral human blood is a measure of the content of fully mature T-cells, which form with sheep's red blood cells characteristic aggregates which can be counted under the microscope.
For the performance of the E-rosette test, peripheral human lymphocytes are isolated by a gradient centrifugation. Their RNS polymerase is blocked by alpha-amanitin. […] This value is taken as 100% in a relative numerical scale, and after the Alpha-amanitin blockage it is taken to be 0%; see Table XII.

The test system of experiment [2] is human peripheral lymphocytes. The experiment is classed as cell-based. The conditions noted are these: for Stimulation (%) of allogenic mixed culture: 1 microgram thymosin α1 per ml; for stimulation (+) / inhibition (-) of mixed lymphocyte culture: 1 μg fragment per ml, not blocked, culture without addition = 0%.
From the text: as §1
The test in mixed lymophocyte cultures is based on the fact that T-cells are made to proliferate by stimulation with allogenic antigens. For the performance of the test, the lymphocytes of donor A ("responder") are incubated with those of donor B ("stimulator") for 4 to 5 days. Then ^3 H-thymidin is added and the rate of proliferation is measured on the basis of the increasing radioactivity of the cell culture due to the installation of the radioactive material. Since both populations A and B might be made to proliferate, resulting in an unclear effect, population B is blocked with mitomycin C in all metabolical activities. This test is routinely used before organ transplants to determine the immunological compatibility of donor and receiver tissues.

For “thymosin α1 (SDAAVDTSSEITTKDLKEKKEVVEEAEN; ends and bridges not checked; UniProt P06454 2-29, looked up) [Thymosin (synthetic), parent substance, totally synthetic thymosin α1, 28 amino acids, analytically pure, reference compound]”, the “Relative number of E-rosettes (%)” value is on record as 39% in experiment [1] (0.25 μg per culture); 100% in experiment [1] (0.50 μg per culture); 64% in experiment [1] (1.00 μg per culture); 57% in experiment [1] (2.50 μg per culture); 33% in experiment [1] (5.00 μg per culture). Besides, in experiment [1], the “E-rosette number (%)” value was found to be 100%. Besides, the Optimum concentr. in experiment [1] came out at 1.6 μm. In addition, the “Stimulation (%) of allogenic mixed culture” value in experiment [2] (cell pair AB, culture inhibited with 1 microgram α-amanitin per ml) was “+86%”; in experiment [2] (cell pair AB, culture not inhibited, stimulator cells blocked with mitomycin), “+20%”; in experiment [2] (cell pair AD, culture inhibited with 1 microgram α-amanitin per ml), “+37%”; in experiment [2] (cell pair AD, culture not inhibited), “+4%”; in experiment [2] (cell pair BA, culture inhibited with 1 microgram α-amanitin per ml), “+47%”; in experiment [2] (cell pair BA, culture not inhibited) it was “+27%”. In addition, the “Stimulation (%) of allogenic mixed culture” value in experiment [2] (cell pair BD, culture inhibited with 1 microgram α-amanitin per ml) is recorded as “+51%”; in experiment [2] (cell pair BD, culture not inhibited), “+45%”; in experiment [2] (cell pair DA, culture inhibited with 1 microgram α-amanitin per ml) it was “+0%”; in experiment [2] (cell pair DA, culture not inhibited), “+44%”; in experiment [2] (cell pair DB, culture inhibited with 1 microgram α-amanitin per ml), “+1550%”; in experiment [2] (cell pair DB, culture not inhibited), “+27%”.

For the molecule Ac-SDAAVDTSSEIT [IX], the “E-rosette number (%)” value in experiment [1] stood at 40%. Moreover, the Optimum concentr. in experiment [1] is reported as 4 μm. Moreover, the figures for the “stimulation (+) / inhibition (-) of mixed lymphocyte culture” value (from here on “stimulation (+) / inhibition (-)”) in experiment [2] (cell pair AB), in experiment [2] (cell pair CD) and in experiment [2] (cell pair DC) were -74%, -63% and -77%, respectively.

On to KDAAVD [Ia], for which, in experiment [1], the “E-rosette number (%)” value came out at 93%. The molecule further showed an Optimum concentr. in experiment [1] of 16 μm. The “stimulation (+) / inhibition (-)” value in experiment [2] (cell pair AB) is on record as -8%; in experiment [2] (cell pair BA), -15%; in experiment [2] (cell pair CD) it was -73%; in experiment [2] (cell pair DC), -31%.

Turning to `C[C@H](NC(=O)[C@@H](N)CCC(=O)O)C(=O)N[C@@H](CCC(=O)O)C(=O)N[C@@H](CC(N)=O)C(=O)O` [V] (H-EAEN-OH), the “E-rosette number (%)” value in experiment [1] came out at 42%. This molecule had an Optimum concentr. in experiment [1] of 113 μm. The “stimulation (+) / inhibition (-)” value in experiment [2] (cell pair AB) is “+223%”; in experiment [2] (cell pair CD), “+45%”; in experiment [2] (cell pair DC), “+37%”.

Consider KEVVEEAEN [VI], for which, in experiment [1], the “E-rosette number (%)” value was 16% and the Optimum concentr. came out at 10 μm. For the same molecule, the “stimulation (+) / inhibition (-)” value in experiment [2] (cell pair AB) is recorded as “+153%”. For the same molecule, the “stimulation (+) / inhibition (-)” value in experiment [2] (cell pair CD) was “+57%”.

In the case of TSSEIT [II], in experiment [1], the “E-rosette number (%)” value is 29%. For the same molecule, the Optimum concentr. in experiment [1] worked out at 80 μm. In addition, the “stimulation (+) / inhibition (-)” value in experiment [2] (cell pair BA) is reported as -18%; in experiment [2] (cell pair CD) it was -53%; in experiment [2] (cell pair DC) it was “+30%”.

TKDLKEKKEVVEEAEN [VII]: in experiment [1], the “E-rosette number (%)” value was determined as 41% and the Optimum concentr. worked out at 6 μm.
